Test results published in ChEMBL document CHEMBL1806384, “Identification of benzofuran-4,5-diones as novel and selective non-hydroxamic acid, non-peptidomimetic based inhibitors of human peptide deformylase” (Bioorg Med Chem Lett, 2011).
pIC50: −log10 of the molar value.

Legend:
[1] = molecular target: T1, Peptide deformylase, mitochondrial (Homo sapiens) (UniProt Q9HBH1); assay: Inhibition of human peptide deformylase at 100 uM after 1 hr by fluorescence polarization based competition assay
T1 sequence (whole entry): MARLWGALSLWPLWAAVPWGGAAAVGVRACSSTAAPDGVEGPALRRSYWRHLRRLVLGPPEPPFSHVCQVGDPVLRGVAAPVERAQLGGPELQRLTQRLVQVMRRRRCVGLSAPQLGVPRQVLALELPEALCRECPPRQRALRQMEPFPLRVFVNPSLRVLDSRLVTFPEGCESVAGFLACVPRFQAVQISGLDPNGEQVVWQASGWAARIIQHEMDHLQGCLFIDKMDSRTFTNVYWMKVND

[2] = molecular target: T2, Peptide deformylase (Escherichia coli) (UniProt Q9JN24); assay: Inhibition of Escherichia coli peptide deformylase at 100 uM after 1 hr by fluorescence polarization based competition assay
T2 sequence (whole entry): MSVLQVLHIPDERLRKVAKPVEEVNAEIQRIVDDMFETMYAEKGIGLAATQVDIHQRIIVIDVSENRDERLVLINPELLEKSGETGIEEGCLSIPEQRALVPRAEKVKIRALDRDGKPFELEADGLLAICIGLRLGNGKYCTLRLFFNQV

[3] = molecular target: T3, Aminopeptidase N (Sus scrofa) (UniProt P15145); assay: Inhibition of porcine kidney microsomal aminopeptidase N at 100 uM after 1 hr by fluorescence polarization based competition assay
T3 sequence (whole entry): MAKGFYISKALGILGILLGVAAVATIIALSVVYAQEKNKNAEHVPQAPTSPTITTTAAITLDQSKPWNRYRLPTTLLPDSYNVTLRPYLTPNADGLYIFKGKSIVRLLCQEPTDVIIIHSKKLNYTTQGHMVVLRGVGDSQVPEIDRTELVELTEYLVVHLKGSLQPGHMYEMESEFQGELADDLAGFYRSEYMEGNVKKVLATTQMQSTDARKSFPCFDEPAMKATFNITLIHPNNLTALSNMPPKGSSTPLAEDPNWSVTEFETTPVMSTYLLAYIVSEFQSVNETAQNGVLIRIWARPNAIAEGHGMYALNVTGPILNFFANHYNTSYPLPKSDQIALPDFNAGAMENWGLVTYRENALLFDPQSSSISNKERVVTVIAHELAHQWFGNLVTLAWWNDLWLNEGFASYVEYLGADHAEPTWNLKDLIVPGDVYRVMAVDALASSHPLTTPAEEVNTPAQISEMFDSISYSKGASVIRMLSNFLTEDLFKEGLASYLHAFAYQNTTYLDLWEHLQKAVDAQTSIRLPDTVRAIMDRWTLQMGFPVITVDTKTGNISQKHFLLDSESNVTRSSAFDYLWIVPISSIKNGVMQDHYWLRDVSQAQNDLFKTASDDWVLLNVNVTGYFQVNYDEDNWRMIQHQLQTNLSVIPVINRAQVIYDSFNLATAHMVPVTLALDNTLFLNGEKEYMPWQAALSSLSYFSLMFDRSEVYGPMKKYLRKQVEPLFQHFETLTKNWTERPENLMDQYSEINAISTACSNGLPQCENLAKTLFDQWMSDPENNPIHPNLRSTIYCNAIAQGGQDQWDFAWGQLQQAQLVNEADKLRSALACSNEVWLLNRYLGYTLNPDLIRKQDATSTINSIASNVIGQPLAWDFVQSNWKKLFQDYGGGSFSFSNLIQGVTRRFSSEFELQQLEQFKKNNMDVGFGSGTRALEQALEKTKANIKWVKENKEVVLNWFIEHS

[4] = molecular target: T4, Interstitial collagenase (Homo sapiens) (UniProt P03956); assay: Inhibition of human recombinant MMP1 at 100 uM after 1 hr by fluorescence polarization based competition assay
T4 sequence (whole entry): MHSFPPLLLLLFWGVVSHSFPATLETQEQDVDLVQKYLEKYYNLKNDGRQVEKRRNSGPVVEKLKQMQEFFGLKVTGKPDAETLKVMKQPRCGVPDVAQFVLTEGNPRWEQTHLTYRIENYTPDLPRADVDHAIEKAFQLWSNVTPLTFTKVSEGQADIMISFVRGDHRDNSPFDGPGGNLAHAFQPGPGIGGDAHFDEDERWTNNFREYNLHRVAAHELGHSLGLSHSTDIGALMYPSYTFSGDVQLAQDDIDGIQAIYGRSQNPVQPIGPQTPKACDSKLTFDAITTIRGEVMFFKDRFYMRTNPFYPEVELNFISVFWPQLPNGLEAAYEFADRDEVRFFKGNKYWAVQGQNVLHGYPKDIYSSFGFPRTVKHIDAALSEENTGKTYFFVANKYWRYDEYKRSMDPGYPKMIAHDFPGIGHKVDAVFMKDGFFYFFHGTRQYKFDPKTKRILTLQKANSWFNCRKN

[5] = tested on: HL-60; assay: Cytotoxicity against human HL60 cells; assay type: functional, cell-based
[6] = tested on: HL-60; assay: Cytotoxicity against human vincristine-resistant HL60 cells; assay type: functional, cell-based
[7] = tested on: Jurkat; assay: Cytotoxicity against human Jurkat cells; assay type: functional, cell-based
[8] = tested on: MOLT-3; assay: Cytotoxicity against human MOLT3 cells; assay type: functional, cell-based
[9] = Cytotoxicity against human ALL3 cells; assay type: functional, cell-based
[10] = Cytotoxicity against human CWR22 cells; assay type: functional, cell-based
[11] = tested on: HEK293; assay: Cytotoxicity against human HEK293 cells; assay type: cell-based
[12] = tested on: Y79; assay: Cytotoxicity against human Y79 cells; assay type: functional, cell-based
[13] = Cytotoxicity against human Meso47 cells; assay type: functional, cell-based
[14] = molecular target: T5, Peptide deformylase (Escherichia coli, UniProt Q9JN24); assay: Inhibition of Escherichia coli peptide deformylase after 1 hr by fluorescence polarization based competition assay
T5 sequence (Q9JN24 whole entry): T2 sequence (whole entry)

COc1ccc(C(=O)c2coc3c(Cl)cc(O)c(Cl)c23)cc1
inhibition [1]: 9% | inhibition [2]: 0% | inhibition [3]: 0% | inhibition [4]: 0% | pIC50 [5]: 4.00 | pIC50 [6]: 4.00 | pIC50 [7]: 4.00 | pIC50 [8]: 4.00 | pIC50 [9]: 4.00 | pIC50 [10]: 4.00 | pIC50 [11]: 4.00 | pIC50 [12]: 4.00 | pIC50 [13]: 4.00

COc1ccc(C(=O)c2coc3cc(Br)c(O)cc23)cc1
inhibition [1]: 0% | inhibition [2]: 0% | inhibition [3]: 0% | inhibition [4]: 10% | pIC50 [5]: 4.00 | pIC50 [6]: 4.00 | pIC50 [7]: 4.00 | pIC50 [8]: 4.14 | pIC50 [9]: 4.00 | pIC50 [10]: 4.33 | pIC50 [11]: 4.14 | pIC50 [12]: 4.00 | pIC50 [13]: 4.00

O=C(c1ccccc1)c1coc2c(Cl)c(Cl)c(O)cc12
inhibition [1]: 24% | inhibition [2]: 1% | inhibition [3]: 6% | inhibition [4]: 0% | pIC50 [5]: 4.00 | pIC50 [6]: 4.00 | pIC50 [7]: 4.00 | pIC50 [8]: 4.00 | pIC50 [9]: 4.00 | pIC50 [10]: 4.00 | pIC50 [11]: 4.00 | pIC50 [12]: 4.00 | pIC50 [13]: 4.00

COc1ccc(C(=O)c2coc3c(Br)cc(O)cc23)cc1
inhibition [1]: 11% | inhibition [2]: 9% | inhibition [3]: 0% | inhibition [4]: 0% | pIC50 [5]: 4.00 | pIC50 [6]: 4.00 | pIC50 [7]: 4.00 | pIC50 [8]: 4.00 | pIC50 [9]: 4.00 | pIC50 [10]: 4.00 | pIC50 [11]: 4.00 | pIC50 [12]: 4.00 | pIC50 [13]: 4.00

COc1ccc(C(=O)c2coc3c2C(=O)C(=O)C(Cl)=C3)cc1
pIC50 [14]: < 4.00 | inhibition [1]: 100% | inhibition [2]: 11% | inhibition [3]: 54% | inhibition [4]: 11% | pIC50 [5]: 4.49 | pIC50 [7]: 4.24 | pIC50 [8]: 4.33 | pIC50 [9]: 4.47 | pIC50 [11]: 4.00

COc1cc(C(=O)c2coc3c(Cl)c(Cl)c(O)cc23)cc(OC)c1OC
inhibition [1]: 18% | inhibition [2]: 2% | inhibition [3]: 2% | inhibition [4]: 0% | pIC50 [5]: 4.00 | pIC50 [6]: 4.00 | pIC50 [7]: 4.00 | pIC50 [8]: 4.00 | pIC50 [9]: 4.00 | pIC50 [10]: 4.00 | pIC50 [11]: 4.00 | pIC50 [12]: 4.00 | pIC50 [13]: 4.00

COc1ccc(C(=O)c2coc3ccc(O)c(Br)c23)cc1
inhibition [1]: 0% | inhibition [2]: 0% | inhibition [3]: 0% | inhibition [4]: 0% | pIC50 [5]: 4.00 | pIC50 [6]: 4.00 | pIC50 [7]: 4.00 | pIC50 [8]: 4.00 | pIC50 [9]: 4.00 | pIC50 [10]: 4.00 | pIC50 [11]: 4.00 | pIC50 [12]: 4.00 | pIC50 [13]: 4.00

COc1ccc(C(=O)c2coc3c2C(=O)C(=O)c2ccccc2-3)cc1OC
inhibition [1]: 0% | inhibition [2]: 0% | inhibition [3]: 0% | inhibition [4]: 0%

COc1ccc(C(=O)c2coc3c(Br)c(Br)c(O)cc23)cc1
inhibition [1]: 0% | inhibition [2]: 3% | inhibition [3]: 0% | inhibition [4]: 2% | pIC50 [5]: 4.00 | pIC50 [6]: 4.00 | pIC50 [7]: 4.00 | pIC50 [8]: 4.00 | pIC50 [9]: 4.00 | pIC50 [10]: 4.00 | pIC50 [11]: 4.00 | pIC50 [12]: 4.00 | pIC50 [13]: 4.00

COc1ccc(C(=O)c2coc3c(Cl)c(Cl)c(O)cc23)cc1OC
inhibition [1]: 0% | inhibition [2]: 0% | inhibition [3]: 0% | inhibition [4]: 0% | pIC50 [5]: 4.00 | pIC50 [6]: 4.00 | pIC50 [7]: 4.00 | pIC50 [8]: 4.00 | pIC50 [9]: 4.00 | pIC50 [10]: 4.00 | pIC50 [11]: 4.00 | pIC50 [12]: 4.00 | pIC50 [13]: 4.00
